{"source": "patent US12623942B2", "about": "“Method for extracting salts and temperature- regenerated extracting composition” (ADIONICS, priority 2016, dated 2026)", "key": {"[1]": {"experiment": "Solubility in water", "type": "physicochemical", "description": "The hydrophoby or the solubility in water of a compound may be measured by standard methods and, especially, by UV/visible spectroscopy."}, "[2]": {"experiment": "Liquid-liquid extraction of mono-salt saline solution", "details": "for Extraction rate at room temperature (RT), BaCl2 / Extraction rate at room temperature (RT), CaCl2 / Extraction rate at room temperature (RT), KCl / Extraction rate at room temperature (RT), LiCl / Extraction rate at room temperature (RT), MgCl2 / Extraction rate at room temperature (RT), NaCl / Extraction rate at room temperature (RT), SrCl2: 0.1M CEM + 3.52M ASM2 in CH2Cl2, initial salt 0.1 mol/L, Org./Water = 1, molar %", "description": "The extracting composition is obtained by solubilizing an amount of CEM and ASM in the selected fluidizing agent, dichloromethane CH2Cl2, dichlorobenzene or dichlorotoluene or any other fluidizing agent able to well solubilize the mixture CEM/ASM in order to obtain the searched final concentrations after solubilizing CEMs and ASMs in a minimum of 3 milliliters of fluidizing agent. If the selected fluidizing agent is also an ASM compound, so the selected ASM volume is at least 3 milliliters. The given concentrations of ASM2 and ASM9 are related to the added fluidizing agent volume and the concentrations of CEM are related to the added fluidizing agent+ASM volume. The extracting organic composition is then lightly heated so as to promote the solubilization of the organic compounds by means of a heat gun (temperature around 50 to 60° C.) for a few seconds (10 to 30 seconds) until a clear solution is obtained. The composition is thus left for 24 hours at room temperature so as to make sure that the obtained formulation is stable.\nThese sealed formulations are then orbitally stirred at 500 revolutions/minute for two hours after adding an equivalent volume of water which was distilled twice so as to allow a water saturation of the whole formulation and a pH control at the inlet and at the outlet (pH close to 7, or at least maintained after contact with the saturation water).\n3 mL of the prepared extracting organic composition are then taken from the lower phase of the decanted diphasic mixture and transferred to a vial containing 3 mL of the water containing the one or more considered chloride salts (NaCl or others), then the vial is sealed and orbitally stirred (at 500 revolutions per minute) for 2 hours at room temperature (RT), that is to say between 20 and 25° C.\nA verification is made to make sure that droplets in the range of 1-2 mm are really present during these stirrings in order to be sure that an equilibrium in the distribution of the considered chloride salt (NaCl or other) is achieved between both liquid phases at the end of stirring. The aspect of the organic and aqueous phases is clear and colorless or slightly turbid.\nOnce the 2-hour stirring is carried out, the stirring is stopped and the whole is left for decantation for about 10 minutes, at least until both phases are completely separated, at the temperature of the assay. Then, the upper aqueous phase is taken then stirred and diluted in order to analyze its salinity by a ion chromatography (a Metrohm™ device including a cation analyzing column and an anion analyzing column suitable for the ions and for the concentration of the salts which are searched for). Likewise, the chloride salt (NaCl or other) initial aqueous solution is also analyzed by this ion chromatography to determine its cation and chloride molar relative concentration before the extraction. All the extractions and analyses were duplicated.\nThe considered extracting composition comprises 0.1 mol/L of CEM1 and 3.52 mol/L of ASM2 in dichloromethane CH2Cl2, which was obtained as described above. The initial concentration of the considered salt in water, whether it is LiCl, NaCl, KCl, MgCl2, CaCl2, SrCl2 or BaCl2, is 0.1 mol/L.\nAfter carrying out these 7 specific extractions (duplicated) of salts, the amounts of extracted cations in relative molar percentage before and after extraction at room temperature and at water/extracting formulation iso-volume are indicated in table I: […]"}, "[3]": {"experiment": "Complexing constant Log K in methanol at 25° C.", "type": "binding", "method": "K is the complexing constant of a CEM and a […] cation in methanol, at 25° C., which is measured according to the standard method of isothermal calorimetric titration."}, "[4]": {"details": "mono-salt solutions, 0.1M CEM + 3.52M ASM2 in CH2Cl2, RT"}}}
{"smiles": "OCc1cccc(C(F)(F)F)c1", "note": "[ASM1, 3-(trifluoromethyl)benzyl alcohol]", "values": [{"measurement": "Solubility in water", "setting": "[1]", "result": 32000, "unit": "µM"}]}
{"smiles": "OCc1cc(C(F)(F)F)cc(C(F)(F)F)c1", "note": "[ASM2, [3,5-Bis(Trifluoromethyl)phenyl]methanol]", "values": [{"measurement": "Solubility in water", "setting": "[1]", "result": 2290, "unit": "µM"}]}
{"smiles": "OCc1cc(C(F)(F)C(F)(F)C(F)(F)C(F)(F)F)cc(C(F)(F)C(F)(F)C(F)(F)C(F)(F)F)c1", "note": "[ASM3]", "values": [{"measurement": "Solubility in water", "setting": "[1]", "result": 0.5, "unit": "µM"}]}
{"smiles": "OCc1cc(C(F)(F)F)c(C(F)(F)F)c(C(F)(F)F)c1", "note": "[ASM4]", "values": [{"measurement": "Solubility in water", "setting": "[1]", "result": 390, "unit": "µM"}]}
{"smiles": "CC(O)c1cccc(C(F)(F)C(F)(F)C(F)(F)F)c1", "note": "(stereo not shown) [ASM5]", "values": [{"measurement": "Solubility in water", "setting": "[1]", "result": 420, "unit": "µM"}]}
{"smiles": "CCCC(O)c1cc(C(F)(F)F)cc(C(F)(F)F)c1", "note": "(stereo not shown) [ASM7]", "values": [{"measurement": "Solubility in water", "setting": "[1]", "result": 480, "unit": "µM"}]}
{"smiles": "OC(c1cccc(C(F)(F)F)c1)c1cccc(C(F)(F)F)c1", "note": "[ASM8]", "values": [{"measurement": "Solubility in water", "setting": "[1]", "result": 70, "unit": "µM"}]}
{"smiles": "CCOC(=O)COc1c2cc(C(C)(C)C)cc1Cc1cc(C(C)(C)C)cc(c1OCC(=O)OCC)Cc1cc(C(C)(C)C)cc(c1OCC(=O)OCC)Cc1cc(C(C)(C)C)cc(c1OCC(=O)OCC)C2", "note": "[CEM10, 4-tert-Butylcalix[4]arene-tetraacetic acid tetraethyl ester]", "values": [{"measurement": "Extraction rate at room temperature (RT), BaCl2", "setting": "[2]", "result": 3.7, "unit": "%"}, {"measurement": "Extraction rate at room temperature (RT), CaCl2", "setting": "[2]", "result": 4.7, "unit": "%"}, {"measurement": "Extraction rate at room temperature (RT), KCl", "setting": "[2]", "result": 14.4, "unit": "%"}, {"measurement": "Extraction rate at room temperature (RT), LiCl", "setting": "[2]", "result": 5.5, "unit": "%"}, {"measurement": "Extraction rate at room temperature (RT), MgCl2", "setting": "[2]", "result": 5.1, "unit": "%"}, {"measurement": "Extraction rate at room temperature (RT), NaCl", "setting": "[2]", "result": 66.2, "unit": "%"}, {"measurement": "Extraction rate at room temperature (RT), SrCl2", "setting": "[2]", "result": 5.9, "unit": "%"}, {"measurement": "Na/Ca selectivity", "setting": "[2]; [4]", "result": 14}, {"measurement": "Log K(Cs^+, MeOH, 25° C.)", "setting": "[3]", "result": 2.7}, {"measurement": "Log K(K^+, MeOH, 25° C.)", "setting": "[3]", "result": 2.4}, {"measurement": "Log K(Li^+, MeOH, 25° C.)", "setting": "[3]", "result": 2.6}, {"measurement": "Log K(Na^+, MeOH, 25° C.)", "setting": "[3]", "result": 5.0}, {"measurement": "Log K(Rb^+, MeOH, 25° C.)", "setting": "[3]", "result": 3.1}]}
{"smiles": "CCOC(=O)COc1c2cc(C(C)(C)C)cc1Cc1cc(C(C)(C)C)cc(c1OCC(=O)OCC)Cc1cc(C(C)(C)C)cc(c1OCC(=O)OCC)Cc1cc(C(C)(C)C)cc(c1OCC(=O)OCC)Cc1cc(C(C)(C)C)cc(c1OCC(=O)OCC)Cc1cc(C(C)(C)C)cc(c1OCC(=O)OCC)C2", "note": "[CEM12, 4-tert-Butylcalix[6]arene-hexaacetic acid hexaethyl ester]", "values": [{"measurement": "Extraction rate at room temperature (RT), BaCl2", "setting": "[2]", "result": 11.8, "unit": "%"}, {"measurement": "Extraction rate at room temperature (RT), CaCl2", "setting": "[2]", "result": 5.5, "unit": "%"}, {"measurement": "Extraction rate at room temperature (RT), KCl", "setting": "[2]", "result": 55.7, "unit": "%"}, {"measurement": "Extraction rate at room temperature (RT), LiCl", "setting": "[2]", "result": 9.0, "unit": "%"}, {"measurement": "Extraction rate at room temperature (RT), MgCl2", "setting": "[2]", "result": 5.4, "unit": "%"}, {"measurement": "Extraction rate at room temperature (RT), NaCl", "setting": "[2]", "result": 29.6, "unit": "%"}, {"measurement": "Extraction rate at room temperature (RT), SrCl2", "setting": "[2]", "result": 4.6, "unit": "%"}, {"measurement": "K/Ca selectivity", "setting": "[2]; [4]", "result": 10.2}]}
{"smiles": "CC(C)(C)c1cc2c(OCC(=O)N3CCCC3)c(c1)Cc1cc(C(C)(C)C)cc(c1OCC(=O)N1CCCC1)Cc1cc(C(C)(C)C)cc(c1OCC(=O)N1CCCC1)Cc1cc(C(C)(C)C)cc(c1OCC(=O)N1CCCC1)C2", "note": "[CEM 4, 4-tert-butyl-Calix[4]arene tetrakis(N-pyrrolidinylacetamide)]", "values": [{"measurement": "Log K(Ba^++, MeOH, 25° C.)", "setting": "[3]", "result": 6.8}, {"measurement": "Log K(Ca^++, MeOH, 25° C.)", "setting": "[3]", "result": 7.8}, {"measurement": "Log K(Cs^+, MeOH, 25° C.)", "setting": "[3]", "result": 1.0}, {"measurement": "Log K(K^+, MeOH, 25° C.)", "setting": "[3]", "result": 5.4}, {"measurement": "Log K(Li^+, MeOH, 25° C.)", "setting": "[3]", "result": 3.0}, {"measurement": "Log K(Mg^++, MeOH, 25° C.)", "setting": "[3]", "result": 1.2}, {"measurement": "Log K(Na^+, MeOH, 25° C.)", "setting": "[3]", "result": 7.2}, {"measurement": "Log K(Rb^+, MeOH, 25° C.)", "setting": "[3]", "result": 3.0}, {"measurement": "Log K(Sr^++, MeOH, 25° C.)", "setting": "[3]", "result": 8.1}]}
{"smiles": "CCN(CC)C(=O)COc1c2cc(C(C)(C)C)cc1Cc1cc(C(C)(C)C)cc(c1OCC(=O)N(CC)CC)Cc1cc(C(C)(C)C)cc(c1OCC(=O)N(CC)CC)Cc1cc(C(C)(C)C)cc(c1OCC(=O)N(CC)CC)Cc1cc(C(C)(C)C)cc(c1OCC(=O)N(CC)CC)Cc1cc(C(C)(C)C)cc(c1OCC(=O)N(CC)CC)Cc1cc(C(C)(C)C)cc(c1OCC(=O)N(CC)CC)Cc1cc(C(C)(C)C)cc(c1OCC(=O)N(CC)CC)C2", "note": "[CEM 9, 4-tert-butyl-Calix[8]arene octakis(N,N-diethylacetamide)]", "values": [{"measurement": "Log K(Ca^++, MeOH, 25° C.)", "setting": "[3]", "result": 7.2}]}
{"smiles": "CCOC(=O)COc1c2cc(C(C)(C)C)cc1Cc1cc(C(C)(C)C)cc(c1OCC(=O)OCC)Cc1cc(C(C)(C)C)cc(c1OCC(=O)OCC)Cc1cc(C(C)(C)C)cc(c1OCC(=O)OCC)Cc1cc(C(C)(C)C)cc(c1OCC(=O)OCC)C2", "note": "[CEM 11, 4-tert-Butylcalix[5]arene-pentaacetic acid pentaethyl ester]", "values": [{"measurement": "Log K(Cs^+, MeOH, 25° C.)", "setting": "[3]", "result": 5.5}, {"measurement": "Log K(K^+, MeOH, 25° C.)", "setting": "[3]", "result": 5.3}, {"measurement": "Log K(Li^+, MeOH, 25° C.)", "setting": "[3]", "result": 1.0}, {"measurement": "Log K(Na^+, MeOH, 25° C.)", "setting": "[3]", "result": 4.4}, {"measurement": "Log K(Rb^+, MeOH, 25° C.)", "setting": "[3]", "result": 5.6}]}
